Legend:
[1] = Determination of the pKa of hinokitiol; type: physicochemical; conditions: 0.1 M KCl solution in water, spectrophotometric titration
Description: The pKa of hinokitiol was determined by spectrophotometric titration with varying pH. Hinokitiol (100 μM) was dissolved in a 0.1 M KCl solution in H2O and acidified to pH=3.0 (using 0.1 M HCl). The UV-Vis spectrum was repeatedly obtained upon sequential titration of 0.1 M KOH to obtain a range of pHs (3.0, 3.4, 3.9, 4.2, 4.6, 4.9, 6.0, 6.4, 7.0, 7.2, 7.6, 8.4, 9.3, 9.7, 10.4, 10.9, 11.7, 12.0).

[2] = Iron (II) binding affinity, ferrozine competition assay
Description: Specifically, the association constant for iron (II) was determined by a ferrozine competition assay (KA of ferrozine=3.65×10^15) (60). FeCl2 (25 μM) was pre-mixed with ferrozine (75 μM) in a 25 mM MES/Tris buffer at pH=7.0 containing 62.5 mM sodium ascorbate. Then increasing concentrations of small molecule (from 40X stocks in DMSO) were added to the indicated final concentrations. The solutions were allowed to equilibrate for 24 hours before reading of the absorbance at 562 nm. […] The system was allowed to equilibrate overnight, and the absorbance corresponding to the Fe(chelator)3 complex was determined. The EC50 values for each chelator were calculated by a nonlinear curve fit (Hill1) on OriginPro by plotting the absorbance vs. concentration of titrant, and the KA for each complex was determined from the equation: KA, ligand=(KA, competitor*[EC50])/[ligand] where the ligand is the molecule originally bound to iron, and the competitor is the competing chelator.

[3] = Hinokitiol binding selectivity by ICP-MS; conditions: for Extracted Metal 1:1 Hino:Metals: 1 mM Hino; for Extracted Metal 1:1 Hino:Metals / Extracted Metal 10:1 Hino:Metals: 1 mM of each metal; for Extracted Metal 10:1 Hino:Metals: 60 mM Hino
Description: The binding selectivity for hinokitiol with multiple divalent metals was determined similar to previously described (32). […] The colored solution was allowed to incubate for 4 hours at room temperature. The solution was diluted in buffer, and extracted (×3) using 1:1 Hexanes:Ethyl Acetate. […] Control experiments were performed similar to those described above but in the absence of hinokitiol. No metal was detected in the organic layer by ICP-MS. Control experiments were also performed similar to those described above but using 60 mM hinokitiol. Metal content after extraction was compared to the initial metal content in the aqueous solution before extraction, and it was determined that the metal:hinokitiol complexes are extracted into the organic layer.

[4] = Exchangeability of ferric iron bound to hinokitiol; type: physicochemical
Description: The reversible exchange of ferric iron bound to hinokitiol was determined similar to previously described (69). […] The solution was equilibrated for 1 hour at 37° C., and then an equal amount of ^55FeCl3 (100 nM) was added. The solution was incubated at 37° C., and at the indicated time points an aliquot was taken and added to water. The iron-hinokitiol complex was immediately separated from unbound iron through extraction with ethyl acetate and the radioactive counts were determined by scintillation counting.

[5] = Rate of iron (III) reduction; type: physicochemical; conditions: 62.5 mM ascorbate buffer
Description: The rate of iron (III) reduction in the absence or presence of hinokitiol was determined using ferrozine to quantify the concentration of iron (II) similar to previously described (71). […] The absorbance at 562 nm, corresponding to Fe(ferrozine)3, was determined at the indicated time points.

shDMT1 Caco-2 monolayers = assay: Imaging of cytosolic iron with calcein green in Caco-2 monolayers; type: cell-based, Human; conditions: 25 μM FeCl3, 1 hour
Description: Temporal live cell imaging of labile iron levels in shDMT1 Caco-2 monolayers was performed after staining of Caco-2 monolayers with calcein green-AM (5 μM) in the apical and basolateral liquid for 30 minutes in pH=7.4 DMEM. […] Final volume administered was 1.5 mL/kg for each mouse, correcting for individual body weight. […] Mice were humanely sacrificed by isoflurane overdose after 6 hours and blood was collected by cardiac puncture. Radioactivity was quantified by gamma counting and calculated as the percentage of gavaged dose (±SEM). Experiments were performed with 4 genotyped-matched mice/day; preliminary analysis determined there were no gender effects on uptake of ^59Fe after intragastric gavage; mixed genders were used in the experiments shown.

normal MEL cells = assay: Hemoglobinization of normal MEL cells; type: cell-based, mouse; conditions: same concentration as in deficient system
Description: Cells were then incubated at 37° C. for 72 hours unless otherwise noted. […] Hemoglobinized MEL cells were quantified three days after DMSO induction through o-dianisidine staining similar to previously reported (74). Cells were centrifuged three days after induction and rinsed with PBS. […] Cells were then imaged on an AXIO Zoom […] microscope to obtain color images. The number of stained cells were then quantified via ImageJ analysis and compared to the number of total cells in each image. To determine that hinokitiol requires DMSO induction for hemoglobinization, 2% DMSO was not added at the beginning of the experiment before a 72-hour incubation and o-dianisidine staining.

[6] = test system: Mfrn1-deficient zebrafish; assay: Hemoglobinization in Mfrn1-deficient zebrafish; type: in vivo, Danio rerio
[7] = Single-dose in vivo pharmacokinetics of hinokitiol in mice; conditions: 100 mg/kg
Description: FIGS. 29A-29B show single-dose in vivo pharmacokinetics of hinokitiol in mice. Mice were mixed C57BL/6 and 129/Sv background (2-3 mo. old) were administered various concentrations of hinokitiol (30 or 100 mg Hino/kg body weight) by two different routes (A) intraperitoneal injection and (B) oral gavage. Plasma samples were collected at various timepoints (5-360 minutes) for drug measurement by HPLC.
In addition to evaluating the pharmacodynamics (effect) of hinokitiol in Al, the pharmacokinetics of hinokitiol were characterized to guide the optimal dose scheme for treatment.

CC(C)c1cccc(=O)c(O)c1 [hinokitiol]
pKa [1]: 7.33
KA for iron (II) ([2]; pH 7.0): 5.1×10^15
KA for iron (II) ([2]; pH 7.0, listed as Hinokitiol): 5.1 × 10^15
Cu^II competitively bound relative to Fe^II ([3]; 1:1 Hino:Metals): 10 fold
Extracted Metal 1:1 Hino:Metals ([3]; Co^II): 0.001 ± 0.000 µmol
Extracted Metal 10:1 Hino:Metals ([3]; Co^II): 41 ± 0.3 µmol
Extracted Metal 1:1 Hino:Metals ([3]; Cu^II): 45.15 ± 6.46 µmol
Extracted Metal 10:1 Hino:Metals ([3]; Cu^II): 46 ± 0.2 µmol
Extracted Metal 1:1 Hino:Metals ([3]; Fe^II): 4.80 ± 0.61 µmol
Extracted Metal 10:1 Hino:Metals ([3]; Fe^II): 46 ± 0.4 µmol
Extracted Metal 1:1 Hino:Metals ([3]; Mn^II): 0.0003 ± 0.0001 µmol
Extracted Metal 10:1 Hino:Metals ([3]; Mn^II): 37 ± 0.8 µmol
Extracted Metal 10:1 Hino:Metals ([3]; Ni^II): 35 ± 0.3 µmol
Extracted Metal 1:1 Hino:Metals ([3]; Zn^II): 0.0015 ± 0.0006 µmol
Extracted Metal 10:1 Hino:Metals ([3]; Zn^II): 38 ± 0.2 µmol
time to equilibrium between 55Fe- and 56Fe-hinokitiol complex ([4]; 10 mM Mes/Tris, pH 7.0): within one hour
exchange of bound 56Fe with 55Fe in solution ([4]; within 10 minutes, pH 7.0, 37° C.): > 20%
reduction of iron (III) in a reducing environment [5]: slowed
cytosolic labile iron (calcein green) (shDMT1 Caco-2 monolayers): increased labile iron up to 5 μM
effect on hemoglobinization in wild type system (normal MEL cells): negligible effects
hemoglobinization and GFP-positive erythrocytes ([6]; Mfrn1-deficient morphant zebrafish, forty-eight hours): restored hemoglobinization and the number of GFP-positive erythrocytes
anemic phenotype ([6]; embryos from heterozygous cross of +/frs fish): rescued the anemic phenotype
half-life [7]: increased half-life

— patent US12084411B2, “Hinokitiol analogues, methods of preparing and pharmaceutical compositions thereof” (The Board of Trustees of the University of Illinois, priority 2018, dated 2024)
